{"source": "paper PMC8623418", "about": "“Novel Multitarget Hydroxamic Acids with a Natural Origin CAP Group against Alzheimer’s Disease: Synthesis, Docking and Biological Evaluation” (Pharmaceutics, 2021)", "key": {"HDAC6": {"target": "T1, HDAC6 (Homo sapiens, UniProt Q9UBN7)", "T1 construct": "purchased Enzo Life Sciences (Enzo Biochem, New York, NY, USA)", "T1 sequence (Q9UBN7 1-1215)": "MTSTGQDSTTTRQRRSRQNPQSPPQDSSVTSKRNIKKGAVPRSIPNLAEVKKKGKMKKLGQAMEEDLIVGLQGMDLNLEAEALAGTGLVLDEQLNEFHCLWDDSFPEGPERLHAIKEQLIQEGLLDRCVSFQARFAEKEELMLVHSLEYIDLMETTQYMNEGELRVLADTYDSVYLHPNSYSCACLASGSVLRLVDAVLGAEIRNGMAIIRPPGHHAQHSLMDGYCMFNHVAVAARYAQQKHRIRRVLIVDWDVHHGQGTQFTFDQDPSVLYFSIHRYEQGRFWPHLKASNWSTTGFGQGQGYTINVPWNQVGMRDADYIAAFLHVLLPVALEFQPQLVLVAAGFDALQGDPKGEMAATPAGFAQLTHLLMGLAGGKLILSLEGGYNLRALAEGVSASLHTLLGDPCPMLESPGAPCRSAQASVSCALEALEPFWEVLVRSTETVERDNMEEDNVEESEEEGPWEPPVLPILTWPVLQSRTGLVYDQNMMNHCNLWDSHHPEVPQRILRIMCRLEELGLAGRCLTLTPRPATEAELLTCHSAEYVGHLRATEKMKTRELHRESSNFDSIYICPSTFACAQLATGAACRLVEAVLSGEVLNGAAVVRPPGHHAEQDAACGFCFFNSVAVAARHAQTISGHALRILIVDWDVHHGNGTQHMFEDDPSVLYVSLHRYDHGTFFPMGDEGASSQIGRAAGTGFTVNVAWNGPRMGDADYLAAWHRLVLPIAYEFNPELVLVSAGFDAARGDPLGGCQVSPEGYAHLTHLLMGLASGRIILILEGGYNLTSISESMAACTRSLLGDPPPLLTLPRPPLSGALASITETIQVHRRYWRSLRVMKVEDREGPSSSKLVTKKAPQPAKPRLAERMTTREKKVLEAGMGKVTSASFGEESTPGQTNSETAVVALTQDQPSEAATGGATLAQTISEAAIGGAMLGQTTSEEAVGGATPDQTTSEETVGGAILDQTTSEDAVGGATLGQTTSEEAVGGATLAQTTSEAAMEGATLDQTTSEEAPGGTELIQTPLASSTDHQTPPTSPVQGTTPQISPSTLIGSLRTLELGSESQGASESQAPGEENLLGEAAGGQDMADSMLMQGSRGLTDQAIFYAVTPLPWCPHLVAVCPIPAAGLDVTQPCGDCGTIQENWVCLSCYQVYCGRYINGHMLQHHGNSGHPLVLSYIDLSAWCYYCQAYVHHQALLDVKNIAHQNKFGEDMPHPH", "experiment": "HDAC6 enzyme activity, FLUOR DE LYS fluorometric kit", "assay_type": "biochemical", "conditions": "mean ± SEM; read-out: IC50 HDAC6 Inhibitory Activity"}, "SH-SY5Y cells": {"system": "SH-SY5Y cells", "experiment": "MTT cell viability, SH-SY5Y", "assay_type": "cell-based", "conditions": "Homo sapiens, MTT test", "description": "The effect of the hydroxamic acids on the viability of cells obtained from human embryonic kidneys, HEK 293, as well as the native form of human neuroblastoma, SH-SY5Y, was evaluated in the MTT test. Using a multifunctional flatbed analyzer, Cytation™3 (BioTek Instruments, Inc., Winooski, VT, USA), the optical density was determined at a wavelength of 530 nm. Based on the dose-dependent curves, the concentration values leading to 50% inhibition of cell population growth (IC50) were calculated.\nDue to the fact that most compounds of the class of hydroxamic acids have high cytotoxic activity and are mainly used as anticancer drugs, their use as neuroprotective drugs is limited. Since the goal of our work was to search for agents for the pharmacological correction of neurodegenerative diseases, a necessary part of the biological activity study of the synthesized hydroxamic acids was to determine their effect on the survival of cell cultures. In our work, we used neuron-like neuroblastoma cells SH-SY5Y and a healthy cell line isolated from the human embryonic kidney, HEK 293."}, "5xFAD transgenic mice": {"system": "5xFAD transgenic mice", "experiment": "Morris Water Maze Test in 5xFAD mice", "assay_type": "in vivo", "conditions": "for Mean latency time to hidden platform, first training day / Mean latency time to hidden platform, fourth training day: 15 mg/kg i.p. for 20 days, mean ± SEM; for Mean latency time to hidden platform, first training day: day 1; for Mean latency time to hidden platform, fourth training day: day 4", "description": "All animal procedures were approved by the Animal Care and Use Committee of IPAC RAS. For in vivo studies, 11-month-old male mice of the 5xFAD line (Tg(APPSwFlLon,PSEN1*M146L*L286V) 6799Vas/J) were used. The animals were housed in cages with free access to water and food in a room with a 12 h/12 h light–dark cycle, at a temperature of 23 ± 1 °C and humidity of 50 ± 5%. Before the series of experiments, animals were randomly divided into four groups (n = 8 per group): (1) wild-type group (C57BL6/j mouse line); (2) 5xFAD group; (3) 5xFAD + 15 group; and (4) 5xFAD + 25 group. Both compounds 15 and 25 were dissolved in saline solution and DMSO (10%) immediately before use and intraperitoneally administered to animals for 20 days at a dose of 15 mg/kg body weight for experiments. In the control group, the vehicle solution (saline and DMSO (10%), intraperitoneal) was administered with the same time schedule. The Morris Water Maze Test was performed based on the Morris paradigm, 1985, modified. This test allowed us to evaluate spatial learning and memory formation in mice. The experimental apparatus consisted of a circular pool (diameter, 150 cm; height, 60 cm; OpenScience, Russia) containing water at 22 ± 1 °C. The lighting conditions were as follows: dark side of the pool was 50 lx; bright side was 75 lx. The pool was equally divided into quadrants. A platform (diameter, 10 cm) was positioned inside the reservoir, placed 1 cm below the water surface in the target quadrant of the maze. The platform and pool were white with anti-glare coating, which, together with shadowless lamp lighting, created the effect of an invisible platform that was hidden under the water. As visual cues, we used 4 figures (OpenScience, Moscow, Russia) fixed on the racks and located at the pool sides. The test is based on two phases: the acquisition phase (training days) and the retention phase (probe trial) (Figure 7A). Initially, the training session was performed, during which each animal was placed into the water facing the pool wall. After placing, each animal was given 60 s to find and mount onto the hidden platform. […] Each mouse received training sessions, and the test was repeated four times for four consecutive days in acquisition training (sum 16 trials for training). All 4 start positions for each day (north, south, east, west) were deliberately randomized. The probe trial was performed on the 5th day after the training phase: there were no platform and the mice were given 90 s for swimming. The criteria for the effectiveness of learning and memory formation were the time spent in the target and wrong quadrants, the latency period, and the number of entries to the platform area."}, "[1]": {"conditions": "5th day, versus untreated 5xFAD"}}}
{"smiles": "O=C(CCCCCCC(=O)NC1C2CC3CC(C2)CC1C3)NO", "note": "(centres unmarked) [compound 15, N^1-(Adamant-2-yl)-N^8-Hydroxyoctanediamide]", "values": [{"measurement": "IC50", "setting": "HDAC6", "result": "0.96 ± 0.01", "unit": "µM"}, {"measurement": "IC50", "setting": "SH-SY5Y cells", "result": "47.6 ± 7.19", "unit": "µM"}, {"measurement": "Mean latency time to hidden platform, first training day", "setting": "5xFAD transgenic mice", "result": "53.76 ± 2.79", "unit": "s"}, {"measurement": "Mean latency time to hidden platform, fourth training day", "setting": "5xFAD transgenic mice", "result": "34.28 ± 4.32", "unit": "s"}, {"measurement": "Probe trial: entries to the platform zone", "setting": "5xFAD transgenic mice; [1]", "result": "increased entries to the platform"}, {"measurement": "Probe trial: latency for entering the platform zone", "setting": "5xFAD transgenic mice; [1]", "result": "significantly reduced the latency for entering the platform zone"}, {"measurement": "Platform search strategies (egocentric to allocentric navigation)", "setting": "5xFAD transgenic mice; training phase, 15 mg/kg i.p.", "result": "normalization of this situation and the successful formation of the allocentric cognitive map"}]}
{"smiles": "O=C(/C=C/c1ccc(C(=O)NO)cc1)NC1C2CC3CC(C2)CC1C3", "note": "(centres unmarked) [compound 25, 4-((E)-3-((-Adamantan-2-yl)amino)-3-Oxoprop-1-en-1-yl)-N-Hydroxybenzamide]", "values": [{"measurement": "IC50", "setting": "HDAC6", "result": "6.52 ± 0.4", "unit": "µM"}, {"measurement": "IC50", "setting": "SH-SY5Y cells", "result": "59.51 ± 0.42", "unit": "µM"}, {"measurement": "Mean latency time to hidden platform, first training day", "setting": "5xFAD transgenic mice", "result": "53.46 ± 2.75", "unit": "s"}, {"measurement": "Mean latency time to hidden platform, fourth training day", "setting": "5xFAD transgenic mice", "result": "38.63 ± 3.01", "unit": "s"}, {"measurement": "Probe trial: entries to the platform zone", "setting": "5xFAD transgenic mice; [1]", "result": "improvement in these spatial memory parameters was also observed"}, {"measurement": "Probe trial: latency for entering the platform zone", "setting": "5xFAD transgenic mice; [1]", "result": "improvement in these spatial memory parameters was also observed"}, {"measurement": "Probe trial: time spent in the wrong quadrant", "setting": "5xFAD transgenic mice; [1]", "result": "significant differences were found in the time spent in the wrong quadrant"}]}
